Patent publication US6624119B1, “3-[Benz(ox/thi)azol-7-yl]-1h-pyrimidine-2,4-diones” (BASF Aktiengesellschaft, priority 1998, dated 2003)

What was measured:
Assay in all cases: greenhouse herbicidal test, post-emergence
Assay type in all cases: in vivo
[1] = tested on: Abutilon theophrasti; settings: Abutilon theophrasti (velvet leaf), application rates 15.6 or 7.8 kg/ha a.s., 2 to 4 weeks
Description: (§1) The growing containers used were plastic pots containing loamy sand with approximately 3.0% of humus as the substrate. The seeds of the test plants were sown separately for each species.
(§2) For the post-emergence treatment, the test plants were first grown to a plant height of 3 to 15 cm, depending on the growth habit, and only then treated with the active ingredients which had been suspended or emulsified in water. The test plants were either sown directly and grown in the same containers or first grown separately as seedlings and transplanted into the test containers a few days prior to treatment. The rate of application for the post-emergence treatment was only 15.6 or […] of a.s. (active substance).
(§3) Depending on the species, the plants were kept at 10-25° C. or 20-35° C. The test period extended over 2 to 4 weeks. During this time, the plants were tended, and their response to the individual treatments was evaluated.
(§4) Evaluation was carried out using a scale from 0 to 100. 100 means no emergence of the plants or complete destruction of at least the aerial parts, and 0 means no damage or normal course of growth.
(§5) The plants used in the greenhouse experiments belonged to the following species: […]

[2] = tested on: Solanum nigrum; settings: Solanum nigrum (black nightshade), application rates 15.6 or 7.8 kg/ha a.s., 2 to 4 weeks
Description: as §1, §2, §3, §4, §5

[3] = tested on: Chenopodium album; settings: Chenopodium album (lambsquarters), application rates 15.6 or 7.8 kg/ha a.s., 2 to 4 weeks
Description: as §1, §2, §3, §4, §5

[4] = tested on: Amaranthus retroflexus; settings: Amaranthus retroflexus (redroot pigweed), application rates 15.6 or 7.8 kg/ha a.s., 2 to 4 weeks
Description: as §1, §2, §3, §4, §5

Measured: efficacy (complete destruction; scale 0 to 100)

Cn1c(C(F)(F)F)cc(=O)n(-c2c(F)cc(Cl)c3nc(C4CCCC4)oc23)c1=O [Ia.3, 3-[4-Chloro-2-cyclopentyl-6-fluorobenzoxazol-7-yl]-1-methyl-6-trifluoromethyl-2,4-(1H,3H)-pyrimidinedione]
100%: all assays above
